# Measured values taken from PubChem BioAssay AID330 (DTP/NCI, 2004).
# Where “and” joins values, the source holds several entries; their conditions need not be identical. Equal values may be shown once. Toxic doses and inconclusive results are not listed.
# Tested on: P388 leukemia ip, CD2F1 mice, survival T/C
# Test: NCI In Vivo Anticancer Drug Screen. Data for tumor model P388 Leukemia (intraperitoneal) in CD2F1 (CDF1) mice
# Conditions: endpoint: median survival time, higher = longer survival
# How it was run: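 Mice carrying the transplanted tumor received test compound or vehicle. Survival was recorded in each group, and the value is the treated-group measurement divided by that of the vehicle-treated control group.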
# [1] = dose: 50.0 mg/kg/injection, schedule: Q01DX009 (ip), vehicle: saline with Tween-80
# [2] = dose: 100.0 mg/kg/injection, schedule: Q01DX009 (ip), vehicle: saline with Tween-80
# [3] = dose: 60.0 mg/kg/injection, schedule: Q01DX005 (ip), vehicle: Klucel (hydroxypropylcellulose) (HPC)
# [4] = dose: 120.0 mg/kg/injection, schedule: Q01DX005 (ip), vehicle: Klucel (hydroxypropylcellulose) (HPC)
# [5] = dose: 240.0 mg/kg/injection, schedule: Q01DX005 (ip), vehicle: Klucel (hydroxypropylcellulose) (HPC)
# [6] = dose: 200.0 mg/kg/injection, schedule: Q01DX009 (ip), vehicle: saline with Tween-80
compound,measurement,setting,value
CN[C@H]1CCc2cc(OC)c(OC)c(OC)c2-c2ccc(OC)c(=O)cc21,T/C,"dose: 0.5 mg/kg/injection, schedule: Q01DX009 (ip), vehicle: saline",109 % of control
same,T/C,"dose: 0.5 mg/kg/injection, schedule: Q01DX009 (ip), vehicle: water",109 % of control
same,T/C,"dose: 0.63 mg/kg/injection, schedule: Q01DX009 (ip), vehicle: water",112 % of control
same,T/C,"dose: 1.0 mg/kg/injection, schedule: Q01DX009 (ip), vehicle: saline with Tween-80",117 % of control
same,T/C,"dose: 1.0 mg/kg/injection, schedule: Q01DX009 (ip), vehicle: saline",104 % of control and 124 % of control
same,T/C,"dose: 2.0 mg/kg/injection, schedule: Q01DX009 (ip), vehicle: saline with Tween-80",98 % of control
same,T/C,"dose: 2.0 mg/kg/injection, schedule: Q01DX009 (ip), vehicle: saline",104 % of control and 121 % of control
same,T/C,"dose: 4.0 mg/kg/injection, schedule: Q01DX009 (ip), vehicle: saline with Tween-80",95 % of control
same,T/C,"dose: 4.0 mg/kg/injection, schedule: Q01DX009 (ip), vehicle: saline",104 % of control
same,T/C,"dose: 4.0 mg/kg/injection, schedule: Q04DX003 (ip), vehicle: saline with Tween-80",103 % of control
same,T/C,"dose: 5.0 mg/kg/injection, schedule: Q01DX009 (ip), vehicle: water",117 % of control
same,T/C,"dose: 8.0 mg/kg/injection, schedule: Q01DX009 (ip), vehicle: saline",121 % of control
same,T/C,"dose: 8.0 mg/kg/injection, schedule: Q01DX009 (ip), vehicle: water",152 % of control
same,T/C,"dose: 8.0 mg/kg/injection, schedule: Q04DX003 (ip), vehicle: saline with Tween-80",101 % of control
same,T/C,"dose: 10.0 mg/kg/injection, schedule: Q01DX009 (ip), vehicle: water",155 % of control
same,T/C,"dose: 16.0 mg/kg/injection, schedule: Q04DX003 (ip), vehicle: saline with Tween-80",102 % of control
same,T/C,"dose: 32.0 mg/kg/injection, schedule: Q04DX003 (ip), vehicle: saline with Tween-80",102 % of control
CSc1nc(COC(=O)NC(C)C)c(COC(=O)NC(C)C)n1C,T/C,"dose: 12.5 mg/kg/injection, schedule: Q01DX005 (ip), vehicle: Klucel + Tween-80",113 % of control
same,T/C,"dose: 25.0 mg/kg/injection, schedule: Q01DX005 (ip), vehicle: Klucel + Tween-80",116 % of control
same,T/C,"dose: 100.0 mg/kg/injection, schedule: Q01DX005 (ip), vehicle: Klucel + Tween-80",156 % of control and 163 % of control
same,T/C,"dose: 200.0 mg/kg/injection, schedule: Q01DX005 (ip), vehicle: Klucel + Tween-80",184 % of control
O=C(NC1c2ccccc2Oc2ccccc21)OC1CCCCC1,T/C,"dose: 50.0 mg/kg/injection, schedule: Q01DX005 (ip), vehicle: saline with Tween-80",92 % of control
same,T/C,"dose: 100.0 mg/kg/injection, schedule: Q01DX005 (ip), vehicle: saline with Tween-80",96 % of control
same,T/C,"dose: 200.0 mg/kg/injection, schedule: Q01DX005 (ip), vehicle: saline with Tween-80",100 % of control
CN(C)C1CCc2ccccc2C1OC(=O)c1ccccc1 (stereo not drawn),T/C,[1],101 % of control
same,T/C,[2],107 % of control
c1ccc(-c2cnnc3c4ccccc4nn23)cc1,T/C,"dose: 50.0 mg/kg/injection, schedule: Q01DX005 (ip), vehicle: Klucel (hydroxypropylcellulose) (HPC)",97 % of control
same,T/C,"dose: 100.0 mg/kg/injection, schedule: Q01DX005 (ip), vehicle: Klucel (hydroxypropylcellulose) (HPC)",96 % of control
same,T/C,"dose: 200.0 mg/kg/injection, schedule: Q01DX005 (ip), vehicle: Klucel (hydroxypropylcellulose) (HPC)",91 % of control
Brc1ccc2nc3ccccc3c(SCCCCCCSc3c4ccccc4nc4ccc(Br)cc34)c2c1,T/C,[3],87 % of control and 93 % of control
same,T/C,[4],89 % of control
same,T/C,[5],91 % of control
COC(=O)C1C(=O)OC(C(C)(C)Cl)C1C(=O)OC (stereo not drawn),T/C,"dose: 100.0 mg/kg/injection, schedule: Q04DX002 (ip), vehicle: saline with Tween-80",99 % of control
same,T/C,"dose: 200.0 mg/kg/injection, schedule: Q04DX002 (ip), vehicle: saline with Tween-80",98 % of control
same,T/C,"dose: 400.0 mg/kg/injection, schedule: Q04DX002 (ip), vehicle: saline with Tween-80",101 % of control
CCn1c(=O)c2c(N(C)C)snc2n(CC)c1=O,T/C,"dose: 50.0 mg/kg/injection, schedule: Q01DX009 (ip), vehicle: saline",96 % of control
same,T/C,"dose: 100.0 mg/kg/injection, schedule: Q01DX009 (ip), vehicle: saline",107 % of control
same,T/C,"dose: 200.0 mg/kg/injection, schedule: Q01DX009 (ip), vehicle: saline",110 % of control
O=C(O)CCCCCOC(C[N+](=O)[O-])C(Cl)(Cl)Cl (stereo not drawn),T/C,[1],97 % of control
same,T/C,[2],102 % of control
same,T/C,[6],111 % of control
Clc1cccc2c(SCCCCCCCSc3c4ccccc4nc4c(Cl)cccc34)c3ccccc3nc12,T/C,[3],93 % of control
same,T/C,[4],91 % of control
same,T/C,[5],90 % of control
BrC1=CC(Br)=C2N=C(N3CCCC3)N=C3N=C(C(Br)(Br)Br)N=C1N32,T/C,"dose: 7.5 mg/kg/injection, schedule: Q01DX005 (ip), vehicle: Klucel (hydroxypropylcellulose) (HPC)",94 % of control
same,T/C,"dose: 15.0 mg/kg/injection, schedule: Q01DX005 (ip), vehicle: Klucel (hydroxypropylcellulose) (HPC)",92 % of control
same,T/C,"dose: 30.0 mg/kg/injection, schedule: Q01DX005 (ip), vehicle: Klucel (hydroxypropylcellulose) (HPC)",86 % of control and 90 % of control
same,T/C,[3],86 % of control
same,T/C,[4],88 % of control
same,T/C,[5],94 % of control
c1cc(Nc2ccc(Nc3ccc(CN4CCCCC4)cc3)cc2)ccc1CN1CCCCC1,T/C,"dose: 12.5 mg/kg/injection, schedule: Q01DX009 (ip), vehicle: saline + Tween-80 + alcohol",105 % of control
same,T/C,"dose: 12.5 mg/kg/injection, schedule: Q01DX009 (ip), vehicle: saline with Tween-80",103 % of control
same,T/C,"dose: 25.0 mg/kg/injection, schedule: Q01DX009 (ip), vehicle: saline + Tween-80 + alcohol",111 % of control and 114 % of control
same,T/C,"dose: 25.0 mg/kg/injection, schedule: Q01DX009 (ip), vehicle: saline with Tween-80",107 % of control
same,T/C,"dose: 50.0 mg/kg/injection, schedule: Q01DX009 (ip), vehicle: saline + Tween-80 + alcohol",114 % of control and 115 % of control
same,T/C,[1],111 % of control
same,T/C,"dose: 100.0 mg/kg/injection, schedule: Q01DX009 (ip), vehicle: saline + Tween-80 + alcohol",117 % of control and 118 % of control
same,T/C,[2],99 % of control
same,T/C,"dose: 200.0 mg/kg/injection, schedule: Q01DX009 (ip), vehicle: saline + Tween-80 + alcohol",124 % of control
same,T/C,[6],106 % of control
same,T/C,"dose: 400.0 mg/kg/injection, schedule: Q01DX009 (ip), vehicle: saline with Tween-80",114 % of control
CC1(Cl)CC2OC3(Br)C=CC(C)(O)C2(CC1Br)C3(C)C (stereo not drawn),T/C,"dose: 12.5 mg/kg/injection, schedule: Q01DX009 (ip), vehicle: Klucel (hydroxypropylcellulose) (HPC)",101 % of control
same,T/C,"dose: 25.0 mg/kg/injection, schedule: Q01DX009 (ip), vehicle: Klucel (hydroxypropylcellulose) (HPC)",100 % of control
same,T/C,"dose: 50.0 mg/kg/injection, schedule: Q01DX009 (ip), vehicle: Klucel (hydroxypropylcellulose) (HPC)",100 % of control
same,T/C,"dose: 100.0 mg/kg/injection, schedule: Q01DX009 (ip), vehicle: Klucel (hydroxypropylcellulose) (HPC)",101 % of control
COc1cccc2c1C(=N)c1c(O)c3c(c(O)c1C2=O)CC(O)(C(C)=O)CC3OC1CC(N(Cc2ccccc2)Cc2ccccc2)C(O)C(C)O1 (stereo not drawn),T/C,"dose: 4.69 mg/kg/injection, schedule: Q04DX003 (ip), vehicle: distilled water + Tween-80",101 % of control
same,T/C,"dose: 9.38 mg/kg/injection, schedule: Q04DX003 (ip), vehicle: distilled water + Tween-80",102 % of control
same,T/C,"dose: 18.75 mg/kg/injection, schedule: Q04DX003 (ip), vehicle: distilled water + Tween-80",100 % of control
same,T/C,"dose: 37.5 mg/kg/injection, schedule: Q04DX003 (ip), vehicle: distilled water + Tween-80",96 % of control
same,T/C,"dose: 75.0 mg/kg/injection, schedule: Q04DX003 (ip), vehicle: distilled water + Tween-80",101 % of control
same,T/C,"dose: 150.0 mg/kg/injection, schedule: Q04DX003 (ip), vehicle: distilled water + Tween-80",108 % of control
Cc1ccnc(NN=O)n1,T/C,"dose: 3.12 mg/kg/injection, schedule: Q01DX009 (ip), vehicle: water",99 % of control
same,T/C,"dose: 6.25 mg/kg/injection, schedule: Q01DX009 (ip), vehicle: water",113 % of control
same,T/C,"dose: 12.5 mg/kg/injection, schedule: Q01DX009 (ip), vehicle: water",98 % of control
same,T/C,"dose: 25.0 mg/kg/injection, schedule: Q01DX009 (ip), vehicle: water",100 % of control and 105 % of control
same,T/C,"dose: 50.0 mg/kg/injection, schedule: Q01DX009 (ip), vehicle: water",113 % of control and 90 % of control
same,T/C,"dose: 100.0 mg/kg/injection, schedule: Q01DX009 (ip), vehicle: water",100 % of control
same,T/C,"dose: 200.0 mg/kg/injection, schedule: Q01DX009 (ip), vehicle: water",104 % of control
